Results reported in patent US12435044B2, “Pyridazinone herbicides and pyridazinone intermediates used to prepare a herbicide” (FMC Corporation, priority 2018, dated 2025).

Legend:
Assay type in all cases: in vivo
[1] = test system: E. black nightshade (SOLPT; Solanum ptycanthum); assay: Test H postemergence, mixtures of Cpd. No. 20 with atrazine or glyphosate
From the text: (§1) This test evaluated the effect of mixtures of Cpd. No. 20 with atrazine or glyphosate on several plant species. Seeds of plant species selected from corn (ZEAMD; Zea mays, cv. ‘Pioneer 1184’), soybean (GLXMA; Glycine max, cv. Pioneer 35T58), giant foxtail (SETFA; Setaria faberi), Surinamgrass (BRADC; Brachiaria decumbens), fall panicum (PANDI; Panicum dichotomiflorum), velvetleaf (ABUTH; Abutilon threophrasti), mare's tail (ERICA; Conyza canadensis), barnyardgrass (ECHCG; Echinochloa crus-galli), large crabgrass (DIGSA; Digitaria sanguinalis), palmer amaranth (AMAPA; Amaranthus palmeri), common waterhemp (AMATU; Amaranthus rudis), E. black nightshade (SOLPT; Solanum ptycanthum), and common ragweed (AMBEL; Ambrosia artemisiifolia) were planted in pots containing Redi-Earth® planting medium (Scotts Company, 14111 Scottslawn Road, Marysville, Ohio 43041) comprising spaghnum peat moss, vermiculite, wetting agent and starter nutrients and treated postemergence using test chemicals formulated in a non-phytotoxic solvent mixture which included a surfactant. Plants ranged in height from 2 to 10 cm and were in the one- to two-leaf stage for the postemergence treatment. Treated plants and untreated controls were maintained in a greenhouse for approximately 14 d, after which time all treated plants were compared to untreated controls and visually evaluated for injury. Plant response ratings, summarized in Tables H1 & H2, are based on a 0 to 100 scale where 0 is no effect and 100 is complete control. A dash (-) response means no test result. Test results are presented as a mean of 4 reps.

[2] = test system: Surinamgrass (BRADC; Brachiaria decumbens); assay: as above
From the text: as §1

[3] = test system: barnyardgrass (ECHCG; Echinochloa crus-galli); assay: as above
From the text: as §1

[4] = test system: common ragweed (AMBEL; Ambrosia artemisiifolia); assay: as above
From the text: as §1

[5] = test system: common waterhemp (AMATU; Amaranthus rudis); assay: as above
From the text: as §1

[6] = test system: corn (ZEAMD; Zea mays, cv. ‘Pioneer 1184’); assay: as above
From the text: as §1

[7] = test system: fall panicum (PANDI; Panicum dichotomiflorum); assay: as above
From the text: as §1

[8] = test system: giant foxtail (SETFA; Setaria faberi); assay: as above
From the text: as §1

[9] = test system: large crabgrass (DIGSA; Digitaria sanguinalis); assay: as above
From the text: as §1

[10] = test system: mare's tail (ERICA; Conyza canadensis); assay: as above
From the text: as §1

[11] = test system: palmer amaranth (AMAPA; Amaranthus palmeri); assay: as above
From the text: as §1

[12] = test system: soybean (GLXMA; Glycine max, cv. Pioneer 35T58); assay: as above
From the text: as §1

[13] = test system: velvetleaf (ABUTH; Abutilon threophrasti); assay: as above
From the text: as §1

[14] = test system: corn (ZEAMD; Zea mays, cv. ‘Pioneer 1184’); assay: Test of Tables L1 to L3, postemergence, mixtures of Cpd. No. 20 with benoxacor, isoxadifen-ethyl, or cloquintocet-mexyl
From the text: (§2) This test evaluated the effect of mixtures of Cpd. No. 20 with benoxacor, isoxadifen-ethyl, or cloquintocet-mexyl on several plant species. Seeds of plant species selected from corn (ZEAMD; Zea mays, cv. ‘Pioneer 1184’), soybean (GLXMA; Glycine max, cv. Pioneer 35T58), winter wheat (TRZAW; Triticum aetivum, cv. Arezzo), rice (ORYSS; Oryza sativa, cv. M202), and giant foxtail (SETFA; Setaria faberi) were planted in pots containing Redi-Earth® planting medium (Scotts Company, 14111 Scottslawn Road, Marysville, Ohio 43041) comprising spaghnum peat moss, vermiculite, wetting agent and starter nutrients and treated postemergence using test chemicals formulated in a non-phytotoxic solvent mixture which included a surfactant. Plants ranged in height from 7 to 10 cm and were in the one- to two-leaf stage for the postemergence treatment. Treated plants and untreated controls were maintained in a greenhouse for approximately 14 d, after which time all treated plants were compared to untreated controls and visually evaluated for injury. Plant response ratings, summarized in Tables L1 to L3, are based on a 0 to 100 scale where 0 is no effect and 100 is complete control. A dash (-) response means no test result. Test results are presented as a mean of 4 reps.

[15] = test system: giant foxtail (SETFA; Setaria faberi); assay: as above
From the text: as §2

[16] = test system: rice (ORYSS; Oryza sativa, cv. M202); assay: as above
From the text: as §2

[17] = test system: soybean (GLXMA; Glycine max, cv. Pioneer 35T58); assay: as above
From the text: as §2

[18] = test system: winter wheat (TRZAW; Triticum aetivum, cv. Arezzo); assay: as above
From the text: as §2

[19] = test system: corn (ZEAMD; Zea mays, cv. ‘Pioneer 1184’); assay: Test M postemergence, mixtures of Cpd. No. 20 with isoxadifen-ethyl, cloquintocet-mexyl or Mefenpyr-diethyl; details: approx. 14 d, second component alone 31 g a.i./ha
From the text: as §2, with “with” for “with benoxacor,”, “or cloquintocet-mexyl, or Mefenpyr-diethyl” for “or cloquintocet-mexyl”, “Arezzo), winter barley (HORVW; Hordeum vulgare, cv. Boone),” for “Arezzo),”, “Tables M1” for “Tables L1”, “to M3,” for “to L3,”, “of 3” for “of 4”

[20] = test system: giant foxtail (SETFA; Setaria faberi); assay: as above; details: approx. 14 d, second component alone 31 g a.i./ha
From the text: as §2, with “with” for “with benoxacor,”, “or cloquintocet-mexyl, or Mefenpyr-diethyl” for “or cloquintocet-mexyl”, “Arezzo), winter barley (HORVW; Hordeum vulgare, cv. Boone),” for “Arezzo),”, “Tables M1” for “Tables L1”, “to M3,” for “to L3,”, “of 3” for “of 4”

[21] = test system: rice (ORYSS; Oryza sativa, cv. M202); assay: as above; details: approx. 14 d, second component alone 31 g a.i./ha
From the text: as §2, with “with” for “with benoxacor,”, “or cloquintocet-mexyl, or Mefenpyr-diethyl” for “or cloquintocet-mexyl”, “Arezzo), winter barley (HORVW; Hordeum vulgare, cv. Boone),” for “Arezzo),”, “Tables M1” for “Tables L1”, “to M3,” for “to L3,”, “of 3” for “of 4”

[22] = test system: soybean (GLXMA; Glycine max, cv. Pioneer 35T58); assay: as above; details: approx. 14 d, second component alone 31 g a.i./ha
From the text: as §2, with “with” for “with benoxacor,”, “or cloquintocet-mexyl, or Mefenpyr-diethyl” for “or cloquintocet-mexyl”, “Arezzo), winter barley (HORVW; Hordeum vulgare, cv. Boone),” for “Arezzo),”, “Tables M1” for “Tables L1”, “to M3,” for “to L3,”, “of 3” for “of 4”

[23] = test system: winter barley (HORVW; Hordeum vulgare, cv. Boone); assay: as above; details: approx. 14 d, second component alone 31 g a.i./ha
From the text: as §2, with “with” for “with benoxacor,”, “or cloquintocet-mexyl, or Mefenpyr-diethyl” for “or cloquintocet-mexyl”, “Arezzo), winter barley (HORVW; Hordeum vulgare, cv. Boone),” for “Arezzo),”, “Tables M1” for “Tables L1”, “to M3,” for “to L3,”, “of 3” for “of 4”

[24] = test system: winter wheat (TRZAW; Triticum aetivum, cv. Arezzo); assay: as above; details: approx. 14 d, second component alone 31 g a.i./ha
From the text: as §2, with “with” for “with benoxacor,”, “or cloquintocet-mexyl, or Mefenpyr-diethyl” for “or cloquintocet-mexyl”, “Arezzo), winter barley (HORVW; Hordeum vulgare, cv. Boone),” for “Arezzo),”, “Tables M1” for “Tables L1”, “to M3,” for “to L3,”, “of 3” for “of 4”

[25] = approx. 14 d, Cloquintocet-mexyl alone 31 g a.i./ha

SMILES | Observed result (plant response rating), SOLPT ([1]; applied alone at 125 g a.i./ha) | Observed result (plant response rating), BRADC ([2]; applied alone at 125 g a.i./ha) | Observed result (plant response rating), ECHCG ([3]; applied alone at 125 g a.i./ha) | Observed result (plant response rating), AMBEL ([4]; applied alone at 125 g a.i./ha) | Observed result (plant response rating), AMATU ([5]; applied alone at 125 g a.i./ha) | Observed result (plant response rating), ZEAMD ([6]; applied alone at 125 g a.i./ha) | Observed result (plant response rating), PANDI ([7]; applied alone at 125 g a.i./ha) | Observed result (plant response rating), SETFA ([8]; applied alone at 125 g a.i./ha) | Observed result (plant response rating), DIGSA ([9]; applied alone at 125 g a.i./ha) | Observed result (plant response rating), ERICA ([10]; applied alone at 125 g a.i./ha) | Observed result (plant response rating), AMAPA ([11]; applied alone at 125 g a.i./ha) | Observed result (plant response rating), GLXMA ([12]; applied alone at 125 g a.i./ha) | Observed result (plant response rating), ABUTH ([13]; applied alone at 125 g a.i./ha) | Plant response rating (0 to 100 scale) ZEAMD [19] | Plant response rating (0 to 100 scale) SETFA [20] | Plant response rating (0 to 100 scale) ORYSS [21] | Plant response rating (0 to 100 scale) GLXMA [22] | Plant response rating (0 to 100 scale) HORVW [23] | Plant response rating (0 to 100 scale) TRZAW [24] | other results
CCNc1nc(Cl)nc(NC(C)C)n1 [Atrazine, atrazine] | 28 | 0 | 96 | 48 | 30 | 0 | 0 | 0 | 0 | 23 | 76 | 15 | 0 |  |  |  |  |  |  | Observed result (plant response rating), SOLPT ([1]; applied alone at 250 g a.i./ha): 64; Observed result (plant response rating), BRADC ([2]; applied alone at 250 g a.i./ha): 0; Observed result (plant response rating), ECHCG ([3]; applied alone at 250 g a.i./ha): 100; Observed result (plant response rating), AMBEL ([4]; applied alone at 250 g a.i./ha): 80; Observed result (plant response rating), AMATU ([5]; applied alone at 250 g a.i./ha): 39; Observed result (plant response rating), ZEAMD ([6]; applied alone at 250 g a.i./ha): 0; Observed result (plant response rating), PANDI ([7]; applied alone at 250 g a.i./ha): 0; Observed result (plant response rating), SETFA ([8]; applied alone at 250 g a.i./ha): 0; Observed result (plant response rating), DIGSA ([9]; applied alone at 250 g a.i./ha): 0; Observed result (plant response rating), ERICA ([10]; applied alone at 250 g a.i./ha): 83; Observed result (plant response rating), AMAPA ([11]; applied alone at 250 g a.i./ha): 74; Observed result (plant response rating), GLXMA ([12]; applied alone at 250 g a.i./ha): 33; Observed result (plant response rating), ABUTH ([13]; applied alone at 250 g a.i./ha): 10
CC1COc2ccccc2N1C(=O)C(Cl)Cl (centres unmarked) [Benoxacor, benoxacor, reference compound] |  |  |  |  |  |  |  |  |  |  |  |  |  |  |  |  |  |  |  | ZEAMD plant response rating, 0 to 100 scale ([14]; 31 g a.i./ha): 0; SETFA plant response rating, 0 to 100 scale ([15]; 31 g a.i./ha): 0; ORYSS plant response rating, 0 to 100 scale ([16]; 31 g a.i./ha): 0; GLXMA plant response rating, 0 to 100 scale ([17]; 31 g a.i./ha): 0; TRZAW plant response rating, 0 to 100 scale ([18]; 31 g a.i./ha): 0
CCCCCC(C)OC(=O)COc1ccc(Cl)c2cccnc12 (centres unmarked) [Cloquintocet-mexyl, cloquintocet-mexyl, reference compound] |  |  |  |  |  |  |  |  |  |  |  |  |  | 0 | 0 | 0 | 0 | 0 | 0 | Plant response rating (0 to 100 scale) ZEAMD [14, 25]: 0; Plant response rating (0 to 100 scale) SETFA [15, 25]: 0; Plant response rating (0 to 100 scale) ORYSS [16, 25]: 0; Plant response rating (0 to 100 scale) GLXMA [17, 25]: 0; Plant response rating (0 to 100 scale) TRZAW [18, 25]: 0
O=C(O)CNCP(=O)(O)O [Glyphosate, glyphosate] | 51 | 69 | 31 | 84 | 25 | 74 | 51 | 75 | 90 | 0 | 23 | 25 | 15 |  |  |  |  |  |  | Observed result (plant response rating), SOLPT ([1]; applied alone at 62 g a.i./ha): 43; Observed result (plant response rating), BRADC ([2]; applied alone at 62 g a.i./ha): 68; Observed result (plant response rating), ECHCG ([3]; applied alone at 62 g a.i./ha): 6; Observed result (plant response rating), AMBEL ([4]; applied alone at 62 g a.i./ha): 68; Observed result (plant response rating), AMATU ([5]; applied alone at 62 g a.i./ha): 11; Observed result (plant response rating), ZEAMD ([6]; applied alone at 62 g a.i./ha): 68; Observed result (plant response rating), PANDI ([7]; applied alone at 62 g a.i./ha): 28; Observed result (plant response rating), SETFA ([8]; applied alone at 62 g a.i./ha): 74; Observed result (plant response rating), DIGSA ([9]; applied alone at 62 g a.i./ha): 86; Observed result (plant response rating), ERICA ([10]; applied alone at 62 g a.i./ha): 0; Observed result (plant response rating), AMAPA ([11]; applied alone at 62 g a.i./ha): 43; Observed result (plant response rating), GLXMA ([12]; applied alone at 62 g a.i./ha): 10; Observed result (plant response rating), ABUTH ([13]; applied alone at 62 g a.i./ha): 0
CCOC(=O)C1=NN(c2ccc(Cl)cc2Cl)C(C)(C(=O)OCC)C1 (centres unmarked) [Mefenpyr-diethyl, reference compound] |  |  |  |  |  |  |  |  |  |  |  |  |  | 0 | 0 | 0 | 0 | 0 | 0 | 
